# Data from PMC9495854, “Novel Phenothiazine/Donepezil-like Hybrids Endowed with Antioxidant Activity for a Multi-Target Approach to the Therapy of Alzheimer’s Disease” (Antioxidants, 2022).
# Columns and labels:
# SH-SY5Y cells = test: DCFH-DA cell-based antioxidant assay (H2O2-induced oxidation), SH-SY5Y; details: Homo sapiens, SHSY-5Y, 1 h compound, 100 μM H2O2, read-out: DCFDH-DA IC50 ± SEM SHSY-5Y
# Description: HepG2 cells were cultured in Eagle’s Minimum Essential Medium (MEM, Euroclone S.p.A., Pero, MI, Italy), supplemented with 10% Fetal Bovine Serum (FBS, Euroclone S.p.A., Pero, MI, Italy), 1% L-glutamine (Euroclone S.p.A., Pero, MI, Italy), 100 U/mL penicillin/streptomycin (Euroclone S.p.A., Pero, MI, Italy), 1% Non-Essential Amino Acids (NEAA, Euroclone S.p.A., Pero, MI, Italy). SH-SY5Y cells were grown in a 1:1 mixture of Dulbecco’s modified Eagle’s medium (DMEM)—high glucose (Euroclone S.p.A., Pero, MI, Italy) and Ham’s F12 Medium (Euroclone S.p.A., Pero, MI, Italy) supplemented with 10% FBS, 1% L-glutamine and 100 U/mL penicillin/streptomycin. For cell assays, cells were trypsinized using Trypsin-EDTA 1X in PBS (Euroclone S.p.A., Pero, MI, Italy).
# According to a slightly modified procedure already reported in the literature, the generation of ROS was determined using an oxidation-sensitive fluorescent probe, 2′,7′-dichlorodihydrofluorescein diacetate (DCFH-DA, D6665; Sigma-Aldrich, St. Louis, MO, USA). Briefly, viable cells were seeded in a black 96-well cell culture plate (Costar, Sigma-Aldrich, St. Louis, MO, USA) and after 24 h were incubated with different concentrations (0.1–100 µM) of each compound for 1 h at 37 °C in 5% CO2. […] After washing using PBS, 100 μM H2O2 in medium without serum was added to each well and the cells were incubated for an additional 30 min. The formation of fluorescent dichlorofluorescein (DCF) due to oxidation of DCFH in the presence of ROS, was read at 530 nm using a microplate reader Tecan Infinite M1000 Pro (Tecan, Cernusco S.N., Italy) and DMSO medium was used for control cells. The results are expressed as mean ± SEM of at least three independent measurements in triplicate.
# Aβ1-40 aggregation = target: T1, Aβ1-40 aggregation (Homo sapiens, UniProt P05067); test: Inhibition of Aβ40 aggregation, ThT fluorescence; assay type: biochemical; details: inhibitor 10 µM, Aβ40 30 µM, PBS pH 7.4, 2% HFIP, 2 h 25 °C; mean ± SEM
# T1 construct: purchased EZBiolab
# Description: ThT fluorescence in the presence of Aβ was measured for each compound according a previously described procedure. The samples were co-incubated and mixed in 96-well black, non-binding microplates (Greiner Bio-One GmbH, Frickenhausen, Germany), incubating Aβ40 (EZBiolab, Carmel, IN, USA) at a final concentration of 30 µM with each inhibitors at a final concentration of 10 µM in PBS (pH 7.4) containing 2% 1,1,1,3,3,3-hexafluoro-2-propanol (HFIP). After 2 h at 25 °C, a 25 µM ThT solution was added and fluorescence was determined using the multi-plate reader Tecan Infinite M1000 Pro (Tecan, Cernusco S.N., Italy). The results are reported as mean of three independent experiments ± SEM [13].
# FAAH Human recombinant = target: T2, FAAH Human recombinant (Homo sapiens, UniProt O00519); test: FAAH inhibition, fluorometric assay; assay type: biochemical; details: mean ± SEM; read-out: hFAAH (IC50)
# T2 construct: purchased Cayman Chemical
# T2 sequence (O00519 1-579): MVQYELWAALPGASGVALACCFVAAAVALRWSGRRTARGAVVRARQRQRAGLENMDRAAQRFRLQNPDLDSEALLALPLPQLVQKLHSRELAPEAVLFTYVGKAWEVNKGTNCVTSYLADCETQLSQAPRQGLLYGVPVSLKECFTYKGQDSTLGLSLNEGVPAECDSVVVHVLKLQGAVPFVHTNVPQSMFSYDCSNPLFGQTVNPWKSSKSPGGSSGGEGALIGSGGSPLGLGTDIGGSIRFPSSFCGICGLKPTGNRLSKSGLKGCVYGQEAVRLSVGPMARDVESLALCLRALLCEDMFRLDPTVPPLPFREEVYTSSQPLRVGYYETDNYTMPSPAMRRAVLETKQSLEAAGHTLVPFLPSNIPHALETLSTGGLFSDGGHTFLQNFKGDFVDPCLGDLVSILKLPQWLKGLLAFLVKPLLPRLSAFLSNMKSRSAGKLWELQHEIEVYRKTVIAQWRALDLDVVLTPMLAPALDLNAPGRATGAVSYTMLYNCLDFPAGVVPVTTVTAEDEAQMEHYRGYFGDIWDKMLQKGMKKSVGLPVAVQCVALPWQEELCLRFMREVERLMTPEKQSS
# Description: The fatty acid amide hydrolase inhibition was measured for the final compounds using 96-well black flat-bottom microtiter NBS plates (COSTAR flat black). The total volume was 150 µL: the single hybrid was pre-incubated at different concentrations with the enzyme (FAAH Human recombinant, Cayman Chemical, Ann Arbor, MI, USA) in the specific fluorometric assay buffer (tris-HCl 125 mM, Na2EDTA · 2H2O 1 mM, pH = 9.0) for ten minutes at RT, using an orbital shaker. A 50 μL solution of the substrate (7-amino-4-methyl-2H-1-benzopyran-2-one-5Z,8Z,11Z,14Z-eicosatetraen-amide, at a final concentration of 5 µM) was then added. The plates were then incubated for 1 h at 37 °C in a Tecan Infinite M1000 Pro (Tecan, Cernusco S.N., Italy), reading fluorescence values from each well every 30s (λex = 340 nm, λem = 450 nm). The inhibitor activity was expressed as relative fluorescence units (RFU), using the values obtained from control wells lacking the inhibitor and blank wells lacking both inhibitor and enzyme to calculate percent inhibition values for each well. IC50 values are expressed as mean ± SEM of at least two independent measurements performed in triplicate.
# [1] = DPPH radical scavenging assay; details: DPPH 100 µM in methanol, 30 min
# Description: A previously reported method (Blois) with some modifications (Mishra, Ojha, & Chaudhury, 2012) was used to carry out the DPPH assay in 96-well microtiter plates. Each tested compound was dissolved in methanol, after which a freshly prepared solution of DPPH in methanol (100 µM final concentration) was added. Following vigorous stirring, each mixture was left in the dark for 30 min at room temperature, after which absorbance values for each well were read at 520 nm using a spectrophotometric plate reader (VICTOR^3 V multilabel plate reader, PerkinElmer). Antioxidant activity was determined as RSA% (radical scavenging activity). The value was calculated using following equation: RSA% = 100 × [(Ao − Ai)/Ao], where Ao and Ai represent DPPH absorbance in absence or in presence of antioxidant, respectively. Antiradical curves for calculating the EC50 values were obtained by testing each compound at several concentrations. Values of all parameters are expressed as mean ± SEM of at least three independent measurements in triplicate.
# T1 sequence (P05067 672-711 limits assumed): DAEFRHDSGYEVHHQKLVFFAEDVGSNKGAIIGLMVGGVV
smiles,measurement,setting,value
"O=c1c(O)c(-c2ccc(O)c(O)c2)oc2cc(O)cc(O)c12 [Quercetin, reference compound]",IC50,SH-SY5Y cells,5610 ± 400 nM
COc1cc2c(cc1OC)C(=O)C(CC1CCN(Cc3ccccc3)CC1)C2 (centres unmarked) [Donepezil],Aβ1-40 Aggregation (I% at 10 µM),Aβ1-40 aggregation,14% ± 7
"O=C(Oc1ccc([N+](=O)[O-])cc1)N1CCN(Cc2cccc(Oc3ccccc3)c2)CC1 [JZL195, reference compound]",IC50,FAAH Human recombinant,19 ± 3 nM
"O=C(O)c1cc(O)c(O)c(O)c1 [Gallic acid, reference compound]",EC50 (μmol/μmol of DPPH ± SEM),[1],0.059 ± 0.003 μmol/μmol of DPPH
same,EC50 (μmol/μmol of DPPH ± SEM),[1]; listed as gallic acid,0.059 μmol/μmol of DPPH
